In the supplement of paper PMC11061612:

Columns and labels:
Assay in all cases: combination Emax (second highest fraction inhibited in the dose matrix, 72 h); higher = more inhibition; extreme values may be limits of the assay
8-MG-BA (Glioblastoma) = tested on: 8-MG-BA (Glioblastoma)
How it was run: (§1)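 Cell lines grown in DMEM/F12 or RPMI with 10% FBS were plated in 1536-well plates and held 24 hours at 37°C, 5% CO2 before 72 hours of exposure to two-drug dose matrices, with DMSO typically at 0.2%. CellTiter-Glo 2.0 luminescence gave viability, which was converted to inhibition. Vehicle wells were set to 0 and blank wells to 1. Combination Emax is the second-highest inhibition in the matrix, and Bliss excess is the observed combination effect minus the expected EA + EB − EA·EB, where EA and EB are the single-agent effects.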

[1] = tested on: A549 (Lung Adenocarcinoma)
How it was run: as §1

ARH-77 (Non-Cancerous) = tested on: ARH-77 (Non-Cancerous)
How it was run: as §1

[2] = tested on: BICR22 (Oral Cavity Carcinoma)
How it was run: as §1

[3] = tested on: ECC10 (Gastric Carcinoma)
How it was run: as §1

GI-ME-N (Neuroblastoma) = tested on: GI-ME-N (Neuroblastoma)
How it was run: as §1

[4] = tested on: JSC-1 (B-Cell Non-Hodgkin's Lymphoma)
How it was run: as §1

[5] = tested on: NCI-H1650 (Lung Adenocarcinoma)
How it was run: as §1

[6] = tested on: NCI-H1666 (Lung Adenocarcinoma)
How it was run: as §1

[7] = tested on: NCI-H2141 (Small Cell Lung Carcinoma)
How it was run: as §1

NCI-H2591 (Mesothelioma) = tested on: NCI-H2591 (Mesothelioma)
How it was run: as §1

[8] = tested on: NCI-H64 (Small Cell Lung Carcinoma)
How it was run: as §1

NY (Osteosarcoma) = tested on: NY (Osteosarcoma)
How it was run: as §1

[9] = tested on: ONS-76 (Other Solid Carcinomas)
How it was run: as §1

[10] = tested on: OS-RC-2 (Kidney Carcinoma)
How it was run: as §1

[11] = tested on: PANC-10-05 (Pancreatic Carcinoma)
How it was run: as §1

[12] = tested on: SK-MES-1 (Squamous Cell Lung Carcinoma)
How it was run: as §1

[13] = tested on: SK-MG-1 (Low Grade Glioma)
How it was run: as §1

[14] = tested on: TT2609-C02 (Thyroid Gland Carcinoma)
How it was run: as §1

U-2-OS (Osteosarcoma) = tested on: U-2-OS (Osteosarcoma)
How it was run: as §1

SMILES	combination Emax (8-MG-BA (Glioblastoma))	combination Emax [1]	combination Emax (ARH-77 (Non-Cancerous))	combination Emax [2]	combination Emax [3]	combination Emax (GI-ME-N (Neuroblastoma))	combination Emax [4]	combination Emax [5]	combination Emax [6]	combination Emax [7]	combination Emax (NCI-H2591 (Mesothelioma))	combination Emax [8]	combination Emax (NY (Osteosarcoma))	combination Emax [9]	combination Emax [10]	combination Emax [11]	combination Emax [12]	combination Emax [13]	combination Emax [14]	combination Emax (U-2-OS (Osteosarcoma))
C[C@@H](c1ccc2nccn2c1)n1nnc2ncc(-c3cnn(C)c3)nc21 [Savolitinib] + CC1(C)CCC(CN2CCN(c3ccc(C(=O)NS(=O)(=O)c4ccc(NCC5CCOCC5)c([N+](=O)[O-])c4)c(Oc4cnc5[nH]ccc5c4)c3)CC2)=C(c2ccc(Cl)cc2)C1 [Venetoclax] (first compound max 1 µM, 7x7, partner max 1 µM)	0.12	0.142	0.251	0.108	0.5	0.17	0.115	0.127	0.152	0.198	0.15	0.23	0.246	0.118	0.145	0.117	0.0772	0.11	0.0924	0.125
COc1nnc2ccc(N3CCC(c4ccc(OCCN5CCN(C)C(=O)[C@H]5C)cc4)CC3)nn12 [AZD5153] + Cn1cnc2c(F)c(Nc3ccc(Br)cc3Cl)c(C(=O)NOCCO)cc21 [Selumetinib] (first compound max 1 µM, 7x7, partner max 10 µM)	0.796	0.917	0.839	0.564	0.955	0.349	0.805	0.441	0.558	0.276	0.629	0.237	0.52	0.697	0.343	0.633	0.717	0.467	0.652	0.628
NC1(C(=O)N[C@@H](CCO)c2ccc(Cl)cc2)CCN(c2ncnc3[nH]ccc23)CC1 [Capivasertib] + CCN(CCO)CCCOc1ccc2c(Nc3cc(CC(=O)Nc4cccc(F)c4)[nH]n3)ncnc2c1 [AZD2811] (first compound max 10 µM, 7x7, partner max 1 µM)	0.508	0.698	0.748	0.562	0.86	0.324	0.69	0.351	0.388	0.345	0.297	0.668	0.257	0.589	0.445	0.42	0.36	0.607	0.542	0.383
COc1nnc2ccc(N3CCC(c4ccc(OCCN5CCN(C)C(=O)[C@H]5C)cc4)CC3)nn12 [AZD5153] + CC1(C)CCC(CN2CCN(c3ccc(C(=O)NS(=O)(=O)c4ccc(NCC5CCOCC5)c([N+](=O)[O-])c4)c(Oc4cnc5[nH]ccc5c4)c3)CC2)=C(c2ccc(Cl)cc2)C1 [Venetoclax] (first compound max 1 µM, 7x7, partner max 1 µM)	0.707	0.707	0.861	0.235	0.985	0.285	0.769	0.394	0.439	0.262	0.331	0.226	0.542	0.538	0.273	0.474	0.472	0.425	0.376	0.321
CN(CCO)CC[C@H](CSc1ccccc1)Nc1ccc(S(=O)(=O)NC(=O)c2ccc(N3CCC([C@@H](O)c4ccccc4-c4ccc(Cl)cc4)CC3)cc2)cc1S(=O)(=O)C(F)(F)F [AZD4320] + Cc1cc2ncnn2cc1Nc1ncc2c(n1)n(C1CCOCC1)c(=O)n2C [AZD7648] (first compound max 1 µM, 7x7, partner max 10 µM)	0.168	0.369	0.841	0.594	1	0.153	0.246	0.245	0.197	0.829	0.188	0.964	0.156	0.173	0.119	0.311	0.127	0.295	0.182	0.238
NC1(C(=O)N[C@@H](CCO)c2ccc(Cl)cc2)CCN(c2ncnc3[nH]ccc23)CC1 [Capivasertib] + Cn1cnc2c(F)c(Nc3ccc(Br)cc3Cl)c(C(=O)NOCCO)cc21 [Selumetinib] (first compound max 10 µM, 7x7, partner max 10 µM)	0.592	0.922	0.674	0.949	0.506	0.377	0.724	0.358	0.623	0.214	0.469	0.321	0.305	0.873	0.439	0.727	0.768	0.681	0.542	0.892
